The text below walks through data of article PMC7151078, “A Novel NMDA Receptor Antagonist Protects against Cognitive Decline Presented by Senescent Mice” (Pharmaceutics, 2020).

The nature of data set [1]: Microsomal stability in mice microsomes. The format is in vitro ADME. As to conditions: 37 °C, 0-60 min. As to the method:
(§1) The human, rat, and mice microsomes employed were purchased from Tebu-Xenotech. The compound was incubated at 37 °C with the microsomes in a 50 mM phosphate buffer (pH = 7.4) containing 30 mM MgCl2, 10 mM NADP, 100 mM glucose-6-phosphate and 20 U/mL glucose-6-phosphate-dehydrogenase. Samples (75 µL) were taken from each well at 0, 10, 20, 40, and 60 min and transferred to a plate containing 4 °C 75 µL acetonitrile. Then, 30 µL of 0.5% formic acid in water was added to improve the chromatographic conditions. The plate was centrifuged (46,000× g, 30 min) and supernatants were taken and analyzed in a UPLC-MS/MS (Xevo-TQD, Waters) by employing a BEH C18 column and an isocratic gradient of 0.1% formic acid in water: 0.1% formic acid acetonitrile (60:40) for 5 minutes and a flow of 0.25 mL/min. The metabolic stability of the compounds was calculated from the logarithm of remaining compounds at each time point studied.

Data set [2] can be described thus: Microsomal stability in rat microsomes. The format is in vitro ADME. As to conditions: 37 °C, 0-60 min. As to the method: as §1
Data set [3] has as its system SAMR1 and SAMP8 mice. As to the kind of experiment: Three-chamber test (TCT). The format is in vivo, mouse. The conditions noted are these: SAMP8 strain, 5 mg/kg/day, vs SP8 Ct. As to the method: (§2) Male SAMR1 and SAMP8 mice (n = 41) with 20-weeks-old were used to carry out cognitive and molecular analysis. The animals were randomly divided into four groups: SAMR1 control (SR1 Ct) group (n = 11), SAMP8 control (SP8 Ct) group (n = 8), SAMR1 treated with RL-208 (SR1 RL-208 (5 mg/Kg)) group (n = 10) and SAMP8 treated with RL-208 (SP8 RL-208 (5 mg/Kg)) group (n = 12). Animals had free access to food and water, under standard temperature conditions (22±2 °C) and 12h:12h light-dark cycles (300 lux/0 lux). RL-208, (3,4,8,9-tetramethyltetracyclo[4.4.0.0^3,9.0^4,8]dec-1-yl)-methylamine hydrochloride, (5 mg/kg/day) was administered through drinking water for four weeks before starting the cognitive test. RL-208 was administered up to euthanasia (Figure 1A). Water consumption was controlled each week for each cage and strain. […]
The three-chamber test (TCT) was used to assess preference for social novelty (time spent with a novel intruder in contrast with a familiar one) and sociability (time spent with rodents). […] Each test consists of 15 minutes and is recorded with a camera. […] The time spent in each chamber was evaluated. Then, an intruder (same-sex and age) was added to one of the rooms in a metal cup, and behaviour is recorded for 10 minutes. The time spent in each chamber is evaluated as well as the time interacting with the intruder (e.g., sniffing, rears, entries in each chamber).

For data set [4], the system named is SAMR1 and SAMP8 mice. As to the kind of experiment: Oxidative stress: hydrogen peroxide levels (fluorimetric kit). The format is in vivo, mouse. The conditions noted are these: hippocampus, both RL-208 treated mice groups vs control groups. As to the method: as §2, with “strain. Afterwards, RL-208 concentration was adjusted accordingly to reach the optimal dose for each cage.” for “strain.”

Take `CC12CC3CC1(C)C1(C)CC3(CN)CC21C.Cl` [RL-208, (3,4,8,9-tetramethyltetracyclo [4.4.0.0^3,9.0^4,8]dec-1-yl)methylamine hydrochloride]: the microsomal stability entry in data set [1] and in data set [2] was “good” each time. In addition, the “time sniffing the intruder (sociability)” value in the data set with SAMR1 and SAMP8 mice [3] was “significantly augmented”. Further, the “hydrogen peroxide (ROS) levels” value in the data set on SAMR1 and SAMP8 mice [4] was “significant decrease”.
